We go through 24 compounds from PubChem BioAssay AID330 (DTP/NCI, 2004).

Where “and” joins values, the source holds several entries; their conditions need not be identical. Equal values may be shown once. Inconclusive results and toxic doses are left out.

The test system of this experiment is P388 leukemia ip, CD2F1 mice, survival T/C. Nature of the experiment: NCI In Vivo Anticancer Drug Screen. Data for tumor model P388 Leukemia (intraperitoneal) in CD2F1 (CDF1) mice. Particulars: endpoint: median survival time, higher = longer survival. The procedure, abridged:
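Mice carrying the transplanted tumor received test compound or vehicle. Survival was recorded in each group, and the value is the treated-group measurement divided by that of the vehicle-treated control group.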

Where [1] appears, read: dose: 50.0 mg/kg/injection, schedule: Q01DX009 (ip), vehicle: saline.
Where [2] appears, read: dose: 100.0 mg/kg/injection, schedule: Q01DX009 (ip), vehicle: saline.
Where [3] appears, read: dose: 200.0 mg/kg/injection, schedule: Q01DX009 (ip), vehicle: saline.
Where [4] appears, read: dose: 15.0 mg/kg/injection, schedule: Q01DX005 (ip), vehicle: saline with Tween-80.
Setting [5] is: dose: 30.0 mg/kg/injection, schedule: Q01DX005 (ip), vehicle: saline with Tween-80.
[6] abbreviates: dose: 60.0 mg/kg/injection, schedule: Q01DX005 (ip), vehicle: saline with Tween-80.
[7] abbreviates: dose: 7.5 mg/kg/injection, schedule: Q01DX005 (ip), vehicle: saline with Tween-80.
The mark [8] stands for this setting: dose: 50.0 mg/kg/injection, schedule: Q01DX005 (ip), vehicle: saline with Tween-80.
The mark [9] stands for this setting: dose: 100.0 mg/kg/injection, schedule: Q01DX005 (ip), vehicle: saline with Tween-80.
Where [10] appears, read: dose: 200.0 mg/kg/injection, schedule: Q01DX005 (ip), vehicle: saline with Tween-80.
[11] abbreviates: dose: 50.0 mg/kg/injection, schedule: Q01DX005 (ip), vehicle: Klucel (hydroxypropylcellulose) (HPC).
The mark [12] stands for this setting: dose: 12.5 mg/kg/injection, schedule: Q01DX009 (ip), vehicle: saline.
[13] abbreviates: dose: 25.0 mg/kg/injection, schedule: Q01DX009 (ip), vehicle: saline.
The mark [14] stands for this setting: dose: 120.0 mg/kg/injection, schedule: Q01DX005 (ip), vehicle: saline with Tween-80.
The mark [15] stands for this setting: dose: 240.0 mg/kg/injection, schedule: Q01DX005 (ip), vehicle: saline with Tween-80.

Take `COc1cccc(CCC(=O)O)c1OC`: the T/C is, setting by setting: (dose: 25.0 mg/kg/injection, schedule: Q01DX009 (ip), vehicle: water) 103 % of control; (dose: 50.0 mg/kg/injection, schedule: Q01DX009 (ip), vehicle: water) 100 % of control; (dose: 100.0 mg/kg/injection, schedule: Q01DX009 (ip), vehicle: water) 108 % of control; (dose: 200.0 mg/kg/injection, schedule: Q01DX009 (ip), vehicle: water) 91 % of control; (dose: 400.0 mg/kg/injection, schedule: Q01DX009 (ip), vehicle: water) 92 % of control.
Regarding `Cc1cc(C)n(-c2cc(N3CCN(C)CC3)ncn2)n1`, the T/C is 98 % of control under setting [1], 98 % of control under setting [2] and 98 % of control under setting [3].
As for `CCOC(=O)c1ccc(N(CC(O)CN)S(=O)(=O)c2ccc(C)cc2)cc1` (stereo unspecified), the T/C reads like this: under setting [4], 102 % of control; under setting [5], 101 % of control; under setting [6], 101 % of control and 92 % of control.
In the case of `C[Si](C)(C)CSC#N`, the T/C runs as follows: under setting [7], 97 % of control; under setting [4], 101 % of control; under setting [5], 104 % of control.
As to `Nc1nnc2nc(CC(=O)c3cccc([N+](=O)[O-])c3)/c(=C/C(=O)c3cccc([N+](=O)[O-])c3)n12`, the T/C was 94 % of control under setting [8], 91 % of control under setting [9] and 101 % of control under setting [10].
`C=C1C(=O)OC2C3OC(C)(CCC(O)C3COC(C)=O)CC(OC(=O)/C(=C/C)COC(C)=O)C12` (stereo unspecified): the T/C (dose: 0.75 mg/kg/injection, schedule: Q01DX009 (ip), vehicle: saline) is 116 % of control and 118 % of control; the T/C (dose: 0.78 mg/kg/injection, schedule: Q01DX009 (ip), vehicle: Klucel (hydroxypropylcellulose) (HPC)) is 99 % of control; the T/C (dose: 1.5 mg/kg/injection, schedule: Q01DX009 (ip), vehicle: saline) was 100 % of control and 111 % of control; the T/C (dose: 1.56 mg/kg/injection, schedule: Q01DX009 (ip), vehicle: Klucel (hydroxypropylcellulose) (HPC)) was 113 % of control; the T/C (dose: 3.0 mg/kg/injection, schedule: Q01DX009 (ip), vehicle: saline) was 101 % of control and 106 % of control; the T/C (dose: 3.12 mg/kg/injection, schedule: Q01DX009 (ip), vehicle: Klucel (hydroxypropylcellulose) (HPC)) was 105 % of control. Besides, the T/C (dose: 6.25 mg/kg/injection, schedule: Q01DX009 (ip), vehicle: Klucel (hydroxypropylcellulose) (HPC)) is 97 % of control.
As for `O=C(NC(Cc1c[nH]c2ccccc12)C(=O)NC(Cc1ccccc1)C(=O)O)OCc1ccccc1` (stereo unspecified), the T/C under setting [11] was 103 % of control and 93 % of control; the T/C (dose: 100.0 mg/kg/injection, schedule: Q01DX005 (ip), vehicle: Klucel (hydroxypropylcellulose) (HPC)) is 106 % of control; the T/C (dose: 200.0 mg/kg/injection, schedule: Q01DX005 (ip), vehicle: Klucel (hydroxypropylcellulose) (HPC)) is 89 % of control.
As for `C(Oc1nc(OCC2CO2)nc(OCC2CO2)n1)C1CO1` (stereo unspecified), the T/C runs as follows: under setting [12], 108 % of control; under setting [13], 105 % of control; under setting [1], 101 % of control and 108 % of control.
`CCCCCC1SCC(=O)N1c1nncs1` (stereo unspecified): the T/C under setting [6] was 106 % of control, the T/C under setting [14] is 103 % of control and the T/C under setting [15] was 113 % of control.
As to `Cc1cc(N/N=C/c2cccnc2)c2ccccc2n1`, the T/C is, setting by setting: (dose: 50.0 mg/kg/injection, schedule: Q01DX009 (ip), vehicle: Klucel (hydroxypropylcellulose) (HPC)) 94 % of control; (dose: 100.0 mg/kg/injection, schedule: Q01DX009 (ip), vehicle: Klucel (hydroxypropylcellulose) (HPC)) 100 % of control; (dose: 200.0 mg/kg/injection, schedule: Q01DX009 (ip), vehicle: Klucel (hydroxypropylcellulose) (HPC)) 98 % of control.
`NC(=S)N/N=C/C=N/NC(N)=S`: the T/C is 92 % of control under setting [1], 90 % of control under setting [2] and 101 % of control under setting [3].
With `O=C(O)C1[N-]CCNC1C(=O)O.[O]=[V][OH]` (stereo unspecified), under setting [1], the T/C was 91 % of control.
Take `Clc1ncccc1SSc1cccnc1Cl`: the T/C (dose: 50.0 mg/kg/injection, schedule: Q01DX009 (ip), vehicle: saline with Tween-80) was 104 % of control; the T/C (dose: 100.0 mg/kg/injection, schedule: Q01DX009 (ip), vehicle: saline with Tween-80) was 100 % of control; the T/C (dose: 200.0 mg/kg/injection, schedule: Q01DX009 (ip), vehicle: saline with Tween-80) was 104 % of control.
Take `CCCCCCCCCC[N+]1([O-])CCCCCC1`: the T/C under setting [12] was 100 % of control, the T/C under setting [13] is 106 % of control and the T/C under setting [1] was 94 % of control.
As to `CN(C)C1C(=O)C(C(=O)NCNC(CO)(CO)CO)=C(O)C2(O)C(=O)C3=C(O)c4c(O)cccc4C(C)(O)C3CC12` (stereo unspecified), the T/C is, setting by setting: (dose: 50.0 mg/kg/injection, schedule: Q01DX005 (ip), vehicle: saline) 92 % of control; (dose: 100.0 mg/kg/injection, schedule: Q01DX005 (ip), vehicle: saline) 101 % of control; (dose: 200.0 mg/kg/injection, schedule: Q01DX005 (ip), vehicle: saline) 100 % of control.
As to `COc1ccc(NC(=O)Nc2ccc(-c3ccc(NC(=O)Nc4ccc(OC)cc4)c(C)c3)cc2C)cc1`, the T/C is 100 % of control (dose: 25.0 mg/kg/injection, schedule: Q01DX005 (ip), vehicle: saline with Tween-80); 87 % of control and 94 % of control under setting [8]; 91 % of control under setting [9]; 90 % of control under setting [10].
For `CCn1c2ccc(N(C)C)cc2c2cc(N(C)C)ccc21`, the T/C was 99 % of control under setting [6], 105 % of control under setting [14] and 102 % of control under setting [15].
Take `CCc1nc(N)nc(N)c1-c1ccc(N(C)C)cc1`: the T/C by setting is: (dose: 6.25 mg/kg/injection, schedule: Q01DX005 (ip), vehicle: Klucel (hydroxypropylcellulose) (HPC)) 97 % of control; (dose: 12.5 mg/kg/injection, schedule: Q01DX005 (ip), vehicle: Klucel (hydroxypropylcellulose) (HPC)) 98 % of control; (dose: 25.0 mg/kg/injection, schedule: Q01DX005 (ip), vehicle: Klucel (hydroxypropylcellulose) (HPC)) 96 % of control; under setting [11], 95 % of control.
Regarding `CCOC(=O)C(CC(C)/C=N\Nc1ccccc1)(NC(C)=O)C(=O)OCC` (stereo unspecified), the T/C (dose: 100.0 mg/kg/injection, schedule: Q01DX001 (ip), vehicle: Klucel (hydroxypropylcellulose) (HPC)) was 95 % of control; the T/C (dose: 200.0 mg/kg/injection, schedule: Q01DX001 (ip), vehicle: Klucel (hydroxypropylcellulose) (HPC)) was 93 % of control; the T/C (dose: 400.0 mg/kg/injection, schedule: Q01DX001 (ip), vehicle: Klucel (hydroxypropylcellulose) (HPC)) was 99 % of control.
With `CCOP(=O)(OCC)c1nc(Cl)nc(Cl)c1SC(F)(F)F`, the T/C by setting is: (dose: 3.75 mg/kg/injection, schedule: Q01DX005 (ip), vehicle: saline with Tween-80) 113 % of control; under setting [7], 104 % of control; under setting [4], 100 % of control.
Regarding `CC(C)n1c(Cl)c(C(=O)O)c2ccccc21`, the T/C is 100 % of control (dose: 100.0 mg/kg/injection, schedule: Q04DX002 (ip), vehicle: saline with Tween-80); 98 % of control (dose: 200.0 mg/kg/injection, schedule: Q04DX002 (ip), vehicle: saline with Tween-80); 100 % of control (dose: 400.0 mg/kg/injection, schedule: Q04DX002 (ip), vehicle: saline with Tween-80).
Regarding `O=C(NC(=O)c1cccc2ccccc12)NC(=S)c1ccccc1`, the T/C was 92 % of control (dose: 100.0 mg/kg/injection, schedule: Q01DX001 (ip), vehicle: saline); 88 % of control (dose: 200.0 mg/kg/injection, schedule: Q01DX001 (ip), vehicle: saline); 86 % of control (dose: 400.0 mg/kg/injection, schedule: Q01DX001 (ip), vehicle: saline).
Take `COC1=C(C)C(=O)C2=C(C1=O)C1C3CC4=C(C(=O)C(OC)=C(C)C4=O)C(CNC(=O)C(C)O)N3C(C#N)C(C2)N1C` (stereo unspecified): the T/C (dose: 2.5 mg/kg/injection, schedule: Q01DX005 (ip), vehicle: Klucel (hydroxypropylcellulose) (HPC)) was 155 % of control and 161 % of control.
`O=C1C2C3CC(c4ccccc43)C2N1S(=O)(=O)Cl` (stereo unspecified): the T/C under setting [6] is 107 % of control, the T/C under setting [14] is 106 % of control and the T/C under setting [15] is 114 % of control.
